Assay results taken from PubChem BioAssay (NCI).
“And” between values parts separate entries of the source, which are not always exact repeats. Equal values may be shown once.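 Test compounds were applied to cells in 96-well plates for 48 hours at 5 doses. GI50 = concentration required for 50% inhibition of growth. TGI marks complete inhibition of growth.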 *1 amine or outer side, *2 acyl side, *3 side chain or, on linkers, in order; H or OH if unused. Where a SMILES comes first, the peptide text is derived from it. Bridges are numbered along the chain shown (N, C = ends). Roman numbers before positions name the chains, in order. [ ]: non-standard residue; d: D form. Actinocin(9to1) = Cc1c2oc3c(C)ccc(C(=O)[*:1])c3nc-2c(C(=O)[*:2])c(N)c1=O; NMeV = CN[CH](C(=O)O)C(C)C; Sar = CNCC(=O)O

Key:
Test in all cases: growth of human tumour cells (NCI), 48 h
OVCAR-5 ovarian = tested on: OVCAR-5 ovarian
SNB-19 CNS = tested on: SNB-19 CNS
COLO 205 colon = tested on: COLO 205 colon
MCF7 breast = tested on: MCF7 breast
NCI-H226 lung = tested on: NCI-H226 lung
CAKI-1 renal = tested on: CAKI-1 renal
T-47D breast = tested on: T-47D breast
A549 NSCLC = tested on: A549 NSCLC
NCI-H522 lung = tested on: NCI-H522 lung
UACC-62 melanoma = tested on: UACC-62 melanoma
UACC-257 melanoma = tested on: UACC-257 melanoma
HT29 colon = tested on: HT29 colon
SK-OV-3 ovarian = tested on: SK-OV-3 ovarian
IGROV1 ovarian = tested on: IGROV1 ovarian
NCI/ADR-RES ovarian = tested on: NCI/ADR-RES ovarian
RXF 393 renal = tested on: RXF 393 renal
A498 renal = tested on: A498 renal
U251 CNS = tested on: U251 CNS
CCRF-CEM leukemia = tested on: CCRF-CEM leukemia
OVCAR-8 ovarian = tested on: OVCAR-8 ovarian
UO-31 renal = tested on: UO-31 renal
SF-295 CNS = tested on: SF-295 CNS
MOLT-4 leukemia = tested on: MOLT-4 leukemia
SF-268 CNS = tested on: SF-268 CNS
M14 melanoma = tested on: M14 melanoma
HCT-15 colon = tested on: HCT-15 colon
SK-MEL-5 melanoma = tested on: SK-MEL-5 melanoma
MALME-3M melanoma = tested on: MALME-3M melanoma
SK-MEL-28 melanoma = tested on: SK-MEL-28 melanoma
HCT-116 colon = tested on: HCT-116 colon
OVCAR-3 ovarian = tested on: OVCAR-3 ovarian
MDA-MB-231 breast = tested on: MDA-MB-231 breast
SF-539 CNS = tested on: SF-539 CNS
RPMI-8226 leukemia = tested on: RPMI-8226 leukemia
K-562 leukemia = tested on: K-562 leukemia
HS 578T breast = tested on: HS 578T breast
MDA-MB-435 = tested on: MDA-MB-435
ACHN renal = tested on: ACHN renal
MDA-N = tested on: MDA-N
HOP-62 NSCLC = tested on: HOP-62 NSCLC
HL-60(TB) leukemia = tested on: HL-60(TB) leukemia
OVCAR-4 ovarian = tested on: OVCAR-4 ovarian
KM12 colon = tested on: KM12 colon
BT-549 breast = tested on: BT-549 breast
SR leukemia = tested on: SR leukemia
NCI-H23 lung = tested on: NCI-H23 lung
SNB-75 CNS = tested on: SNB-75 CNS
TK-10 renal = tested on: TK-10 renal
SN12C renal = tested on: SN12C renal
HCC-2998 colon = tested on: HCC-2998 colon
SW-620 colon = tested on: SW-620 colon
SK-MEL-2 melanoma = tested on: SK-MEL-2 melanoma
786-0 renal = tested on: 786-0 renal
DU-145 prostate = tested on: DU-145 prostate
EKVX NSCLC = tested on: EKVX NSCLC
HOP-92 NSCLC = tested on: HOP-92 NSCLC
LOX IMVI melanoma = tested on: LOX IMVI melanoma

SMILES: Cc1c2oc3c(C)ccc(C(=O)NC4C(=O)NC(Cc5ccccc5)C(=O)N5CCCC5C(=O)N(C)CC(=O)N(C)C(C(C)C)C(=O)OC4C)c3nc-2c(C(=O)NC2C(=O)NC(Cc3ccccc3)C(=O)N3CCCC3C(=O)N(C)CC(=O)N(C)C(C(C)C)C(=O)OC2C)c(N)c1=O (configuration not stated) (I: TFP[Sar][NMeV] / II: TFP[Sar][NMeV]; ester I:1-I:C, II:1-II:C; linker I:N-II:N via Actinocin(9to1); configuration not given here)
- TGI (OVCAR-5 ovarian): 55.1 nM
- GI50 (SNB-19 CNS): < 1 nM
- TGI (SNB-19 CNS): 1620 nM
- TGI (COLO 205 colon): 11.2 nM and 17.4 nM
- TGI (MCF7 breast): > 100000 nM
- TGI (NCI-H226 lung): 21.4 nM and 31.2 nM
- TGI (CAKI-1 renal): 210 nM
- TGI (T-47D breast): 64.7 nM
- TGI (A549 NSCLC): 25.2 nM
- TGI (NCI-H522 lung): 21.7 nM
- TGI (UACC-62 melanoma): 2.32 nM
- TGI (UACC-257 melanoma): 57.7 nM
- TGI (HT29 colon): 10.8 nM
- TGI (SK-OV-3 ovarian): 524 nM
- TGI (IGROV1 ovarian): 16.5 nM
- GI50 (NCI/ADR-RES ovarian): 877 nM
- TGI (NCI/ADR-RES ovarian): > 100000 nM
- GI50 (RXF 393 renal): < 1 nM
- TGI (RXF 393 renal): 9.52 nM and 39.4 nM
- TGI (A498 renal): 24.4 nM
- TGI (U251 CNS): 1060 nM and 1260 nM
- TGI (CCRF-CEM leukemia): 7.91 nM
- TGI (OVCAR-8 ovarian): 1530 nM
- GI50 (UO-31 renal): 50.2 nM
- TGI (UO-31 renal): 468 nM and 310 nM
- TGI (SF-295 CNS): 46.5 nM and 413 nM
- TGI (MOLT-4 leukemia): < 1 nM
- TGI (SF-268 CNS): 121 nM and 528 nM
- GI50 (M14 melanoma): < 1 nM
- TGI (M14 melanoma): 39.9 nM and 93.6 nM
- GI50 (HCT-15 colon): 17 nM
- TGI (SK-MEL-5 melanoma): 19.2 nM and 12.5 nM
- TGI (MALME-3M melanoma): 18.7 nM
- TGI (SK-MEL-28 melanoma): 29.8 nM and 41.7 nM
- TGI (HCT-116 colon): 7.36 nM
- TGI (OVCAR-3 ovarian): 25.2 nM and 40 nM
- TGI (MDA-MB-231 breast): 255 nM
- GI50 (SF-539 CNS): < 1 nM
- TGI (RPMI-8226 leukemia): > 100000 nM
- TGI (K-562 leukemia): 3.16 nM
- TGI (HS 578T breast): 47.2 nM and 55 nM
- TGI (MDA-MB-435): 22.2 nM
- TGI (ACHN renal): 1210 nM and 1980 nM
- TGI (MDA-N): 44.2 nM
- TGI (HOP-62 NSCLC): 102 nM
- TGI (HL-60(TB) leukemia): < 1 nM
- TGI (OVCAR-4 ovarian): 383 nM and 467 nM
- TGI (KM12 colon): 1050 nM
- TGI (BT-549 breast): 13.5 nM
- TGI (SR leukemia): < 1 nM
- TGI (NCI-H23 lung): 20.2 nM and 39.8 nM
- TGI (SNB-75 CNS): 49 nM
- GI50 (TK-10 renal): 10.2 nM
- TGI (TK-10 renal): 1650 nM and 5660 nM

SMILES: O=C1NC(=O)c2ccccc2/C1=C/c1ccc2c(c1)OCO2
- TGI (OVCAR-5 ovarian): > 100000 nM
- TGI (SNB-19 CNS): > 100000 nM
- TGI (MCF7 breast): > 100000 nM
- TGI (NCI-H226 lung): > 100000 nM
- TGI (CAKI-1 renal): 98400 nM
- TGI (T-47D breast): > 100000 nM
- TGI (A549 NSCLC): > 100000 nM
- TGI (SN12C renal): 47100 nM
- TGI (NCI-H522 lung): > 100000 nM
- TGI (UACC-62 melanoma): 54300 nM
- TGI (UACC-257 melanoma): 55300 nM
- TGI (HT29 colon): 44800 nM
- TGI (SK-OV-3 ovarian): > 100000 nM
- TGI (IGROV1 ovarian): 60900 nM
- TGI (NCI/ADR-RES ovarian): 69200 nM
- TGI (HCC-2998 colon): 38900 nM
- TGI (RXF 393 renal): 17400 nM
- TGI (A498 renal): > 100000 nM
- TGI (CCRF-CEM leukemia): > 100000 nM
- TGI (OVCAR-8 ovarian): 95100 nM
- TGI (UO-31 renal): 32400 nM
- TGI (SF-295 CNS): 83100 nM
- TGI (MOLT-4 leukemia): > 100000 nM
- TGI (SW-620 colon): > 100000 nM
- TGI (SF-268 CNS): 82100 nM
- TGI (M14 melanoma): 76500 nM
- TGI (SK-MEL-2 melanoma): 61400 nM
- TGI (HCT-15 colon): 31800 nM
- TGI (786-0 renal): > 100000 nM
- TGI (SK-MEL-5 melanoma): 29800 nM
- TGI (MALME-3M melanoma): > 100000 nM
- TGI (DU-145 prostate): > 100000 nM
- TGI (HCT-116 colon): 22500 nM
- TGI (OVCAR-3 ovarian): 25000 nM
- TGI (EKVX NSCLC): > 100000 nM
- TGI (MDA-MB-231 breast): 47500 nM
- TGI (SF-539 CNS): 46700 nM
- TGI (RPMI-8226 leukemia): 74300 nM
- TGI (HOP-92 NSCLC): > 100000 nM
- TGI (HS 578T breast): 47200 nM
- TGI (MDA-MB-435): 50100 nM
- TGI (ACHN renal): 34300 nM
- TGI (MDA-N): > 100000 nM
- TGI (HOP-62 NSCLC): 28700 nM
- TGI (HL-60(TB) leukemia): > 100000 nM
- TGI (OVCAR-4 ovarian): > 100000 nM
- TGI (KM12 colon): 41000 nM
- TGI (BT-549 breast): 50800 nM
- TGI (SR leukemia): > 100000 nM
- TGI (NCI-H23 lung): 46800 nM
- TGI (SNB-75 CNS): 86600 nM
- TGI (TK-10 renal): > 100000 nM
- TGI (LOX IMVI melanoma): 46400 nM
